IC50 and inhibition in vivo data for 22 compounds are collected here from patent US7495104B2, “Quinoline or quinazoline derivatives inhibiting auto-phosphorylation of fibroblast growth factor receptors” (Kirin Beer Kabushiki Kaisha, priority 2001, dated 2009).

The structures appear in SMILES notation.

Bek, sequence (P21802 431-767 limits assumed): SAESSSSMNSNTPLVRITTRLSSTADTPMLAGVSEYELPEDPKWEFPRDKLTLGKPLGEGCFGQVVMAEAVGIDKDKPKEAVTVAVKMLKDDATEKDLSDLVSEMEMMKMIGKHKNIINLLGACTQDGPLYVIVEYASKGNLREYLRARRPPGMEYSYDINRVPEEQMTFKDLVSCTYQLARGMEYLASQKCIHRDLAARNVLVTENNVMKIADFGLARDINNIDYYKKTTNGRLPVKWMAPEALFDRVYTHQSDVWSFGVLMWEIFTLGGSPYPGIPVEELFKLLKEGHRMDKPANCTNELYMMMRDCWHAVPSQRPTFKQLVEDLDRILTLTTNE

One test deals with Bek (Homo sapiens, UniProt P21802). The test is described as follows: Inhibitory activity against Bek-autophosphorylation using ELISA method in OCUM-2MD3 cells. The class given is cell-based. The conditions noted are these: 1 hr with compound, read-out: IC50 (concentration necessary for inhibiting 50% of Bek-phosphorylation). The procedure, abridged:
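OCUM-2MD3 human scirrhous gastric cancer cells in 0.1% FCS were exposed to compound for 1 hr at 37° C, then lysed. Phospho-tyrosine proteins were captured with anti-phosphotyrosine antibody, probed with anti-Bek antibody and peroxidase read-out (A450). Positive control (1000 nM) set 0%, untreated 100%; IC50 from multi-level dilutions.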
For orientation: ELISA stands for enzyme-linked immunosorbent assay.
Regarding `COc1cc2c(Oc3ccc(NC(=O)NCCC(C)(C)C)c(F)c3)ccnc2cc1OCCN1CCCCC1` [Compound 99, 1-(3,3-Dimethyl-butyl)-3-{2-fluoro-4-[6-methoxy-7-(2-piperidin-1-yl-ethoxy)-quinolin-4-yloxy]-phenyl}-urea], the IC50 came to 28.6 nM.

`COc1cc2c(Oc3ccc(NC(=O)NCCC(C)(C)C)c(Cl)c3)ccnc2cc1OCCN1CCOCC1` [Compound 114, 1-{2-Chloro-4-[6-methoxy-7-(2-morpholin-4-yl-ethoxy)-quinolin-4-yloxy]-phenyl}-3-(3,3-dimethyl-butyl)-urea]: the IC50 was 20.1 nM. Still for that read-out and setting: then `COc1cc2c(Oc3ccc(NC(=O)NCCC(C)(C)C)c(F)c3)ccnc2cc1OCCN1CCOCC1` [Compound 87, 1-(3,3-Dimethyl-butyl)-3-{2-fluoro-4-[6-methoxy-7-(2-morpholin-4-yl-ethoxy)-quinolin-4-yloxy]-phenyl}-urea], with under 10 nM; and `COc1cc2c(Oc3ccc(Nc4ccc(C(C)(C)C)cc4)cc3)ccnc2cc1OCCN(CCO)C(C)C` [Compound 367, 2-[(2-{4-[4-(4-Tert-butyl-phenylamino)-phenoxy]-6-methoxy-quinolin-7-yloxy}-ethyl)-isopropyl-amino]-ethanol], with 468 nM; and `COc1cc2c(Oc3ccc(Nc4ccc(C(C)(C)C)cc4)cc3)ccnc2cc1OCCN(C)CCO` [Compound 49, 2-[(2-{4-[4-(4-Tert-butyl-phenylamino)phenoxy]-6-methoxy-quinolin-7-yloxy}ethyl)methylamino]ethanol], with 33.9 nM. Take `COc1cc2c(Oc3ccc(NC(=O)NCCC(C)(C)C)c(Cl)c3)ccnc2cc1OCCCCl` [Compound 161, 1-{2-Chloro-4-[7-(3-chloro-propoxy)-6-methoxy-quinolin-4-yloxy]-phenyl}-3-(3,3-dimethyl-butyl)-urea]: the IC50 came to 189 nM.

As to `COc1cc2c(Oc3ccc(NC(=O)NCCC(C)(C)C)c(Cl)c3)ccnc2cc1OCC(O)CN1CCOCC1` (centres unmarked) [Compound 206, 1-{2-Chloro-4-[7-(2-hydroxy-3-morpholin-4-yl-propoxy)-6-methoxy-quinolin-4-yloxy]-phenyl}-3-(3,3-dimethyl-butyl)-urea], the IC50 came to 18.5 nM. For `COc1cc2c(Oc3ccc(NC(=O)NCCC(C)(C)C)c(F)c3)ccnc2cc1OCCCNCCO` [Compound 332, 1-(3,3-Dimethyl-butyl)-3-(2-fluoro-4-{7-[3-(2-hydroxy-ethylamino)-propoxy]-6-methoxy-quinolin-4-yloxy}-phenyl)-urea], the IC50 amounted to 10.8 nM.

As for `COc1cc2c(Oc3ccc(Nc4ccc(C(C)(C)C)cc4)c(Cl)c3)ccnc2cc1OCCN1CCC(CCO)CC1` [Compound 293, 2-[1-(2-{4-[4-(4-Tert-butyl-phenylamino)-3-chloro-phenoxy]-6-methoxy-quinolin-7-yloxy}-ethyl)-piperidin-4-yl]-ethanol], the IC50 amounted to 2360 nM. Same read-out and setting: then `COc1cc2nccc(Oc3ccc(NC(=O)NCCC(C)(C)C)c(Cl)c3)c2cc1OC` [Compound 103, 1-[2-Chloro-4-(6,7-dimethoxyquinolin-4-yloxy)-phenyl]-3-(3,3-dimethyl-butyl)-urea], with 29.8 nM; and `CCC(CO)(CO)NCCOc1cc2nccc(Oc3ccc(NC(=O)NCCC(C)(C)C)cc3)c2cc1OC` [Compound 354, 1-(4-{7-[2-(1,1-Bis-hydroxymethyl-propylamino)-ethoxy]-6-methoxy-quinolin-4-yloxy}-phenyl)-3-(3,3-dimethyl-butyl)-urea], with 38.4 nM; and `COc1cc2c(Oc3ccc(NC(=O)NCCC(C)(C)C)c(F)c3)ccnc2cc1OCCCN(C)CCO` [Compound 333, 1-(3,3-Dimethyl-butyl)-3-[2-fluoro-4-(7-{3-[(2-hydroxy-ethyl)-methyl-amino]-propoxy}-6-methoxy-quinolin-4-yloxy)-phenyl]-urea], with 9.4 nM. On the same count and under the same terms, with `COc1cc2c(Oc3ccc(NC(=O)NCCC(C)(C)C)c(Cl)c3)ccnc2cc1OCCCl` [Compound 160, 1-{2-Chloro-4-[7-(2-chloro-ethoxy)-6-methoxy-quinolin-4-yloxy]-phenyl}-3-(3,3-dimethyl-butyl)-urea] the figure was 23.5 nM; with `COc1cc2c(Oc3ccc(Nc4ccc(C(C)(C)C)cc4)c(F)c3)ccnc2cc1OCCCN1CCC(CCO)CC1` [Compound 306, 2-[1-(3-{4-[4-(4-Tert-butyl-phenylamino)-3-fluoro-phenoxy]-6-methoxy-quinolin-7-yloxy}-propyl)-piperidin-4-yl]-ethanol], 286 nM. On the same count and under the same terms, then `COc1cc2c(Oc3ccc(NC(=O)NCCC(C)(C)C)c(Cl)c3)ccnc2cc1OCCO` [Compound 211, 1-{2-Chloro-4-[7-(2-hydroxy-ethoxy)-6-methoxy-quinolin-4-yloxy]-phenyl}-3-(3,3-dimethyl-butyl)-urea], with under 10 nM. Turning to `CCN(CCO)CCOc1cc2nccc(Oc3ccc(NC(=O)NCCC(C)(C)C)cc3)c2cc1OC` [Compound 340, 1-(3,3-Dimethyl-butyl)-3-[4-(7-{2-[ethyl-(2-hydroxy-ethyl)-amino]-ethoxy}-6-methoxy-quinolin-4-yloxy)-phenyl]-urea], the IC50 was found to be 18.3 nM. Still for that read-out and setting: with `COc1cc2c(Oc3ccc(NC(=O)NCCC(C)(C)C)c(Cl)c3)ccnc2cc1OCCNCCO` [Compound 331, 1-(2-Chloro-4-{7-[2-(2-hydroxy-ethylamino)-ethoxy]-6-methoxy-quinolin-4-yloxy}-phenyl)-3-(3,3-dimethyl-butyl)-urea] the figure was 30.1 nM.

A further test has as its system Human gastric cancer cells (OCUM-2MD3). Kind of test: Tumor growth inhibitory activity against human gastric cancer cells (OCUM-2MD3) in nude mice (Pharmacological Test Example 3). It is filed as in vivo. The conditions noted are these: Mus musculus, 240 h, dose per day 10 mg × 2, oral, read-out: TGIR (tumor growth inhibition rate). The procedure: Human gastric cancer cells (OCUM-2MD3) (kindly provided by Dr. Kosei Hirakawa, Osaka City University) were transplanted into nude mice. […] The test compound suspended in 0.5% methylcellulose was orally administered every day twice a day for 5 days (except for the first day on which the suspension was administered once a day).
Only 0.5% methylcellulose was administered to the control group in the manner as in the test groups. The tumor growth inhibition rate (TGIR) was calculated as follows: The tumor growth inhibition rate (TGIR)=(1−TX/CX)×100 wherein CX represents the volume of tumor at day X for the control group when the tumor volume at the day of the start of the administration was presumed to be 1; and TX represents the volume of tumor for test compound administration groups.
Tumor growth inhibitory activity was measured in the same manner as in Pharmacological Test Example 2, except that oral administration was carried out once a day or twice a day (except for the first day on which the suspension was administered once a day).
Regarding `COc1cc2c(Oc3ccc(NC(=O)NCCC(C)(C)C)c(F)c3)ccnc2cc1OCCN1CCOCC1` [Compound 87, 1-(3,3-Dimethyl-butyl)-3-{2-fluoro-4-[6-methoxy-7-(2-morpholin-4-yl-ethoxy)-quinolin-4-yloxy]-phenyl}-urea], the inhibition in vivo at 10 mg was 33%. Still for that read-out and setting: then `COc1cc2c(Oc3ccc(Nc4ccc(C(C)(C)C)cc4)cc3Cl)ccnc2cc1OCCN1CCOCC1` [Compound 84, N-[4-(Tert-butyl)phenyl]-N-(3-chloro-4-{[6-methoxy-7-(2-morpholinoethoxy)-4-quinolyl]oxy}phenyl)amine], with 33%; and `COc1cc2c(Oc3ccc(Nc4ccc(C(C)(C)C)cc4)cc3)ccnc2cc1OCCNCCO` [Compound 85, 2-({2-[(4-{4-[4-(Tert-butyl)anilino]phenoxy}-6-methoxy-7-quinolyl)oxy]ethyl}amino)-1-ethanol], with 43%; and `COc1cc2c(Oc3ccc(Nc4ccc(C(C)(C)C)cc4)cc3)ccnc2cc1OCC[N+]1([O-])CCOCC1` [Compound 83, 4-{2-[(4-{4-[4-(Tert-butyl)anilino]phenoxy}-6-methoxy-7-quinolyl)-oxy]ethyl}-1,4-oxazinan-4-ium-4-oleate], with 34%. With `COc1cc2nccc(Oc3ccc(Nc4ccc(C(C)(C)C)cc4)cc3)c2cc1OCC(O)CN1CCOCC1` (centres unmarked) [Compound 86, 1-[(4-{4-[4-(Tert-butyl)anilino]phenoxy}-7-methoxy-6-quinolyl)-oxy]-3-morpholino-2-propanol], the inhibition in vivo at 10 mg is 30%.

Take `COc1cc2c(Oc3ccc(NC(=O)NCCC(C)(C)C)cc3)ccnc2cc1OCCCN1CCC(CO)CC1` [Compound 94, 1-(3,3-Dimethyl-butyl)-3-(4-{7-[3-(4-hydroxymethyl-piperidin-1-yl)-propoxy]-6-methoxy-quinolin-4-yloxy}-phenyl)-urea]: the inhibition in vivo at 10 mg turned out to be 40%.

The test is the same for the next values; noted with them: Mus musculus, 600 h, dose per day 25 mg × 1, oral, read-out: TGIR (tumor growth inhibition rate).
Consider `COc1cc2c(Oc3ccc(NC(=O)NCCC(C)(C)C)c(F)c3)ccnc2cc1OCCN1CCCCC1` [Compound 99, 1-(3,3-Dimethyl-butyl)-3-{2-fluoro-4-[6-methoxy-7-(2-piperidin-1-yl-ethoxy)-quinolin-4-yloxy]-phenyl}-urea], for which the inhibition in vivo at 25 mg worked out at 63%.

Turning to `COc1cc2c(Oc3ccc(NC(=O)NCCC(C)(C)C)c(F)c3)ccnc2cc1OCCN1CCOCC1` [Compound 87, 1-(3,3-Dimethyl-butyl)-3-{2-fluoro-4-[6-methoxy-7-(2-morpholin-4-yl-ethoxy)-quinolin-4-yloxy]-phenyl}-urea], the inhibition in vivo at 25 mg is 54%.

Staying with this test, now noted: Mus musculus, 720 h, dose per day 30 mg × 2, oral, read-out: TGIR (tumor growth inhibition rate).
As for `COc1cc2c(Oc3ccc(NC(=O)NCCC(C)(C)C)c(Cl)c3)ccnc2cc1OCCN1CCOCC1` [Compound 114, 1-{2-Chloro-4-[6-methoxy-7-(2-morpholin-4-yl-ethoxy)-quinolin-4-yloxy]-phenyl}-3-(3,3-dimethyl-butyl)-urea], the inhibition in vivo at 30 mg was found to be 48%.
